Results taken from patent US20250221979A1, “NOVEL HETEROCYCLIC COMPOUND” (SHOUYAO HOLDINGS (BEIJING) CO., LTD., priority 2022, published 2025).

What was measured:
[1] = In vivo pharmacokinetic study in CD-1 mice; conditions: male, mouse, single oral gavage dose of 10 mg/kg, plasma
Experimental: In vivo pharmacokinetic study in CD-1 mice
Twenty-four healthy adult male mice from Beijing Vital River Laboratory Animal Technology Co., Ltd. were used in the study.
CD-1 mice were administered with a single oral gavage dose of 10 mg/kg in a volume of 10 mL/kg at a concentration of 1 mg/mL.
The test article in this project is generally suspended in 0.5% hydroxypropylmethyl cellulose, 0.1% Tween 80 (W/V/V) aqueous solution at the concentration of 1 mg/mL.
Animals dosed by gavage were fasted overnight before the experiment from 16 h before dosing to 4 h after dosing. Blood was collected at 0.25, 0.5, 1, 2, 4, 6, 8, and 24 h after administration successively. The animals were lightly anesthetized with isoflurane. About 0.2 mL of whole blood was collected from the orbital venous plexus using a glass blood collection tube and placed in a sodium heparin anticoagulant tube. The sample was centrifuged at 5200 rpm for 5 min at 4° C. The plasma was transferred to a centrifuge tube and stored at −80° C. until analysis.
Analysis of plasma samples Test compounds and internal standards (warfarin or propranolol) were extracted from mouse plasma using an acetonitrile protein precipitation method and the extracts were analyzed by LC/MS/MS. The measured plasma concentration-time data of individual animals were analyzed using the non-compartmental model of WinNonlin (version 5.2.1, Pharsight) software to obtain the corresponding pharmacokinetic parameters: maximum (peak) plasma drug concentration Cmax; Time to peak Tmax; Half-life T1/2 and area under the plasma concentration-time curve extrapolated to infinite time AUC0-inf.

human MAT2A enzyme = human MAT2A enzyme (Homo sapiens (Human), UniProt P31153); experiment: In vitro enzymatic inhibition activity assay on MAT2A (PiColorLock phosphate detection); type: biochemical; conditions: purified human MAT2A 10 nM, ATP 50 μM, L-methionine 100 μM, 6 h at 23° C.; read-out: MAT2A inhibitory activity IC50
Procedure, shortened: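 Purified human MAT2A (10 nM) turned L-methionine (100 μM) and ATP (50 μM) into SAM in Tris-HCl pH 7.5 buffer with MgCl2, KCl and DTT for 6 h at 23 °C. Released phosphate was read colorimetrically at 630 nm. IC50 was fitted from an 8-point, 10-fold dilution series.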

Sequence of human MAT2A enzyme (P31153 whole entry): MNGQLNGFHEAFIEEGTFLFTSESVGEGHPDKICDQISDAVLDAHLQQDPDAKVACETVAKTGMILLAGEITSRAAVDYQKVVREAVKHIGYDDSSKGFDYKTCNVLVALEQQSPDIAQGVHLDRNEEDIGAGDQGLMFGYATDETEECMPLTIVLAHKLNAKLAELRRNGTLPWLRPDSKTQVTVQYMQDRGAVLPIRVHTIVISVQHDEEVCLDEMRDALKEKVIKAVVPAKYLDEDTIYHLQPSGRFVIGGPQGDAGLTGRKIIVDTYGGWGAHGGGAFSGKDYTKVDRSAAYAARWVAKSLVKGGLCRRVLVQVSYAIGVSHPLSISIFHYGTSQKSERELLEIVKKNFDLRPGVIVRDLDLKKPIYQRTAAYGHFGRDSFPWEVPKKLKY

AUC [1] [ng·h/mL] | Cmax [1] [ng/mL] | Tmax [1] [h] | half-life [1] [h] | IC50 (human MAT2A enzyme) [nM] | Structure (SMILES)
44200 | 3080 | 6 | 8.88 |  | COC(=O)c1c(N)c2ccc(Cl)cc2n(-c2ccccc2)c1=O [Example 15, methyl 4-amino-7-chloro-2-oxo-1-phenyl-1,2-dihydroquinoline-3—carboxylate]
25300 | 1920 | 6 | 6.82 | 0.54 | COC(=O)c1c(N)c2ccc(Br)cc2n(-c2ccccc2)c1=O [Example 22, methyl 4-amino-7-bromo-2-oxo-1-phenyl-1,2-dihydroquinoline-3—carboxylate]
37000 | 2640 | 6 | 6.51 | 0.91 | COC(=O)c1c(N)c2ccc(C(F)(F)F)cc2n(-c2ccccc2C)c1=O [Example 23, methyl 4-amino-7-trifluoromethyl-1-(2-methylphenyl)-2-oxo-1,2-dihydro quinoline-3-carboxylate]
24800 | 6690 | 0.42 | 3.88 | 7.3 | COC(=O)c1c(N)c2ccc(C(F)(F)F)cc2n(-c2cccc3cnccc23)c1=O [Example 88, methyl 4-amino-1-(isoquinolin-5-yl)-2-oxo-7-(trifluoromethyl)-1,2-dihydroquinoline-3-carboxylate]
32800 | 5060 | 2.08 | 4.09 | 0.76 | COC(=O)c1c(N)c2ccc(Br)cc2n(-c2ccc(N)nc2)c1=O [Example 180, methyl 4-amino-1-(6-aminopyridin-3-yl)-7-bromo-2-oxo-1,2-dihydroquinoline-3-carboxylate]
232000 | 28600 | 1 | 2.53 | 2.89 | COC(=O)c1c(N)c2ccc(Br)cc2n(-c2ccc(C)nc2)c1=O [Example 214, methyl 4-amino-7-bromo-1-(6-methylpyridin-3-yl)-2-oxo-1,2-dihydroquinoline-3-carboxylate]
 |  |  |  | 1.94 | COC(=O)c1c(N)c2ccc(C(F)F)cc2n(-c2ccc(C(C)O)cc2)c1=O (stereo not shown) [Example 336, methyl 4-amino-7-(difluoromethyl)-1-(4-(1-hydroxyethyl)phenyl)-2-oxo-1,2-dihydroquinoline-3-carboxylate]
 |  |  |  | 1.45 | COC(=O)c1c(N)c2ccc(Br)c(F)c2n(-c2ccc(N)cc2)c1=O [Example 338, methyl 4-amino-1-(4-aminophenyl)-7-bromo-8-fluoro-2-oxo-1,2-dihydroquinoline-3-carboxylate]
 |  |  |  | 2.3 | COC(=O)c1c(N)c2c(F)cc(Br)cc2n(-c2ccc(N)cc2)c1=O [Example 339, methyl 4-amino-1-(4-aminophenyl)-7-bromo-5-fluoro-2-oxo-1,2-dihydroquinoline-3-carboxylate]
 |  |  |  | 2.39 | COC(=O)c1c(N)c2ccc(C)nc2n(-c2ccc([C@@H](C)O)cc2)c1=O [Example 343, methyl 4-amino-(1-(4-(1R)-1-hydroxyethyl)phenyl)-7-methyl-2-oxo-pyrido[2,3-b]pyridin-3-carboxylate]
 |  |  |  | 1.33 | COC(=O)c1c(N)c2ccc(C(F)(F)F)nc2n(-c2ccc([C@@H](C)O)cc2)c1=O [Example 348, methyl 4-amino-(1-(4-(1R)-1-hydroxyethyl)phenyl)-7-(trifluoromethyl)-2-oxo-pyrido[2,3-b]pyridin-3-carboxylate]
 |  |  |  | 1.05 | [2H]C([2H])([2H])OC(=O)c1c(N)c2ccc(Br)cc2n(-c2ccc([C@@H](C)O)cc2)c1=O [Example 351, methyl-d3 (R)-4-amino-7-bromo-1-(4-(1-hydroxyethyl)phenyl)-2-oxo-1,2-dihydroquinolin-3-carboxylate]
 |  |  |  | 2.58 | COC(=O)c1c(N)c2ccc(Br)cc2n(-c2ccc(C(C)O)nc2)c1=O (stereo not shown) [Example 352, methyl 4-amino-7-bromo-1-(6-(1-hydroxyethyl)pyridin-3-yl)-2-oxo-1,2-dihydroquinoline-3-carboxylate]
 |  |  |  | 1.25 | COC(=O)c1c(N)c2ccc(C3CC3)cc2n(-c2ccc([C@@H](C)O)cc2)c1=O [Example 353, methyl 4-amino-(1-(4-(1R)-1-hydroxyethyl)phenyl)-7-cyclopropyl-2-oxo-1,2-dihydroquinoline-3-carboxylate]
 |  |  |  | 0.46 | COC(=O)c1c(N)c2ccc(OC(F)F)cc2n(-c2ccc([C@@H](C)O)cc2)c1=O [Example 354, methyl (R)-4-amino-7-(difluoromethoxy)-1-(4-(1-hydroxyethyl)phenyl)-2-oxo-1,2-dihydroquinoline-3-carboxylate]
 |  |  |  | 0.54 | COC(=O)c1c(N)c2ccc(C(F)F)cc2n(-c2ccc([C@@H](C)O)cc2)c1=O [Example 357, methyl (R)-4-amino-7-(difluoromethyl)-1-(4-(1-hydroxyethyl)phenyl)-2-oxo-1,2-dihydroquinoline-3-carboxylate]
 |  |  |  | 1.36 | COC(=O)c1c(N)c2ccc(C(C)(F)F)cc2n(-c2ccc([C@@H](C)O)cc2)c1=O [Example 358, methyl 4-amino-7-(1,1-difluoroethyl)-1-(4-((1R)-1-hydroxyethyl)phenyl)-2-oxo-1,2-dihydroquinoline-3-carboxylate]
 |  |  |  | 1.27 | COC(=O)c1c(N)c2ccc(C3CC3)nc2n(-c2ccc(C(C)O)cc2)c1=O (stereo not shown) [Example 360, methyl 4-amino-7-cyclopropyl-1-(4-(1-hydroxyethyl)phenyl)-2-oxo-1,2-dihydro-1,8-naphthyridine-3-carboxylate]
 |  |  |  | 2.02 | COC(=O)c1c(N)c2ccc(OC)cc2n(-c2ccc([C@@H](C)O)cc2)c1=O [Example 365, methyl (R)-4-amino-1-(4-(1-hydroxyethyl)phenyl)-7-methoxy-2-oxo-1,2-dihydroquinoline-3-carboxylate]
 |  |  |  | 1 | COC(=O)c1c(N)c2ccc(C(F)F)nc2n(-c2ccc(C(C)O)cc2)c1=O (stereo not shown) [Example 366, methyl 4-amino-7-(difluoromethyl)-1-(4-(1-hydroxyethyl)phenyl)-2-oxo-1,2-dihydro-1,8-naphthyridine-3-carboxylate]
 |  |  |  | 1.45 | [2H]CC(O)c1ccc(-n2c(=O)c(C(=O)OC([2H])([2H])[2H])c(N)c3ccc(C(F)(F)F)nc32)cc1 (stereo not shown) [Example 371, methyl-d3 4-amino-1-(4-(1-hydroxyethyl-2-d)phenyl)-2-oxo-7-(trifluoromethyl)-1,2-dihydro-1,8-naphthyridine-3-carboxylate]
 |  |  |  | 1.05 | COC(=O)c1c(N)c2ccc(C3CC3)nc2n(-c2ccc(N)cc2)c1=O [Example 373, methyl 4-amino-1-(4-aminophenyl)-7-cyclopropyl-2-oxo-1,2-dihydro-1,8-naphthyridine-3-carboxylate]
 |  |  |  | 1.89 | COC(=O)c1c(N)c2ccc(C3CC3)nc2n(-c2ccc(C)nc2)c1=O [Example 377, methyl 4-amino-7-cyclopropyl-1-(6-methylpyridin-3-yl)-2-oxopyrido[2,3-b]pyridin-3-carboxylate]
 |  |  |  | 1.88 | COC(=O)c1c(N)c2ccc(NCC(F)(F)F)nc2n(-c2ccc(C)nc2)c1=O [Example 382, methyl 4-amino-1-(6-methylpyridin-3-yl)-2-oxo-7-((2,2,2-trifluoroethyl)amino)-1,2-dihydro-1,8-naphthyridine-3-carboxylate]
 |  |  |  | 1.55 | COC(=O)c1c(N)c2ccc(OC(C)C)nc2n(-c2ccc(Cl)cc2)c1=O [Example 388, methyl 4-amino-1-(4-chlorophenyl)-7-isopropoxy-2-oxo-1,2-dihydro-1,8-naphthyridine-3-carboxylate]
 |  |  |  | 1.31 | [2H]C([2H])([2H])OC(=O)c1c(N)c2ccc(OC(F)(F)F)cc2n(-c2ccc(N)cc2)c1=O [Example 391, methyl-d3 4-amino-1-(4-aminophenyl)-2-oxo-7-(trifluoromethoxy)-1,2-dihydroquinoline-3-carboxylate]
 |  |  |  | 1.52 | [2H]C([2H])([2H])OC(=O)c1c(N)c2ccc(OC(F)(F)F)cc2n(-c2ccc([C@@H](C)O)cc2)c1=O [Example 393, methyl-d3 4-amino-1-(4-((1R)-1-hydroxyethyl)phenyl)-2-oxo-7-(trifluoromethoxy)-1,2-dihydroquinoline-3-carboxylate]
 |  |  |  | 0.97 | [2H]C([2H])([2H])OC(=O)c1c(N)c2ccc(C(F)(F)F)cc2n(-c2ccc(N)cc2)c1=O [Example 412, methyl-d3 4-amino-1-(4-aminophenyl)-7-(trifluoromethyl)-2-oxo-1,2-dihydroquinoline-3-carboxylate]
 |  |  |  | 1.15 | [2H]C([2H])([2H])OC(=O)c1c(N)c2ccc(OC(F)F)cc2n(-c2ccc(N)cc2C)c1=O [Example 429, methyl-d3 4-amino-1-(2-methyl-4-aminophenyl)-7-(difluoromethoxy)-2-oxo-1,2-dihydroquinolin-3-carboxylate]
